Test results published in US20100286074A1, “PHARMACEUTICAL USE OF G[…] MIXTURE THEREOF AND PHARMACEUTICAL COMPOSITION OF G[…] USE THEREOF” (LIMIN PHARMACEUTICAL FACTORY, LIVZON GROUP, priority 2007, published 2010).
Structures can show the parent of a compound that is named as a salt.

Legend:
clotting time = experiment: Clotting time (Test Tube Method) in patients; assay type: in vivo, human
Experimental: (§1) The basic drugs taken by the patients for treating their cardiovascular and cerebrovascular diseases were maintained the same in terms of dosage and usage during the period for observation, but they are forbidden to take anticoagulant drug, such as aspirin, dipyridamole or Phenylbutazone. The administration was stopped at the end of 4th week and re-examination was performed to observe the change of indexes.
(§2) Duke Method and Test Tube Method were used for determination respectively. The same method was used for the same case. The values are compared before and after the determination, and the changing values are calculated.

bleeding time = experiment: Bleeding time (Duke Method) in patients; assay type: in vivo, human
Experimental: as §1, §2

[1] = Adverse reactions in patients
Source text: (§3) The course for both experimental group and control group are four weeks.

[2] = tested on: platelet aggregation induced by ADP; experiment: Platelet aggregation induced by ADP in patients after drug administration; assay type: in vivo, human; conditions: for platelet aggregation rate: patients, x ± s
Source text: • a. The patients with chronic cardiovascular and cerebrovascular diseases, and the course of disease >1 month; • b.
• a. The patients attacked by acute myocardial infarction or stroke in one month; • b. […] The patients with medical history of serious liver, kidney disease, or digestive tract or other organ bleeding; • d. The persons with reduced granulocytes or platelets.
as §3, §1
Induction experiment of two different concentrations of ADP (0.5 μmol/L and 1.0 μmol/L) was performed and re-examination was conducted on the 2nd and 4th weekends.
In Table 1, 0.5 and 1.0 represent the induction rate of 0.5 μmol/L of ADP and 1.0 μmol/L of ADP respectively.

[3] = Laboratory examination: liver function, blood and urine routine; assay type: in vivo, human
[4] = after taking drug (four-week course)
[5] = before taking drug (baseline of the group)
[6] = four weeks of one tablet per day oral, induction with 0.5 μmol/L ADP
[7] = four weeks of one tablet per day oral, induction with 1.0 μmol/L ADP
[8] = two weeks of one tablet per day oral, induction with 0.5 μmol/L ADP
[9] = two weeks of one tablet per day oral, induction with 1.0 μmol/L ADP

## CC(C)=CCC[C@](C)(O)[C@H]1CC[C@]2(C)[C@@H]1[C@H](O)C[C@@H]1[C@@]3(C)CC[C@H](O)C(C)(C)[C@@H]3[C@@H](O[C@@H]3O[C@H](CO)[C@@H](O)[C@H](O)[C@H]3O)C[C@]12C [ginsenoside Rh1]
Clotting time; [4]
  clotting time: 7.83 ± 2.55 min
Clotting time; [5]
  clotting time: 7.17 ± 2.59 min
Bleeding time; [4]
  bleeding time: 1.89 ± 1.11 min
Bleeding time; [5]
  bleeding time: 1.72 ± 1.20 min
[1]; four-week course, mainly dizziness, nausea, conjunctiva bleeding and bleeding spot on skin
  adverse reactions incidence: 6.86%
[2]; after taking drugs for 4 weeks
  platelet aggregation rate compared with the control group (TCP): smaller than that of the control group obviously
[2]; [6]
  platelet aggregation rate: 28.8 ± 23.4%
[2]; [7]
  platelet aggregation rate: 34.3 ± 25.6%
[2]; [8]
  platelet aggregation rate: 28.7 ± 22.5%
[2]; [9]
  platelet aggregation rate: 35.4 ± 23.4%
[3]; before taking drugs vs after taking drugs for 4 weeks, all within normal limits
  liver function, blood and urine routine: do not change significantly

## Clc1ccccc1CN1CCc2sccc2C1 [TCP, ticlopidine hydrochloride, reference compound]
Bleeding time; [4]
  bleeding time: 2.29 ± 1.40 min
Bleeding time; [5]
  bleeding time: 1.73 ± 1.35 min
[1]; human, in vivo, 2 weeks
  cases with skin rash, hoarseness and mild dysphagia: 2 cases
[1]; human, in vivo, 4 weeks
  adverse reactions incidence: 11.87%
  incidence of conjunctiva bleeding, purpura and bleeding spot on skin: 3.45%
[2]; [6]
  platelet aggregation rate: 32.8 ± 23.1%
[2]; [7]
  platelet aggregation rate: 37.2 ± 25.4%
[2]; [8]
  platelet aggregation rate: 28.3 ± 23.8%
[2]; [9]
  platelet aggregation rate: 35.3 ± 20.8%
[3]; in vivo
  liver function, blood and urine routine: do not change significantly
